Data: patent EP4050002A1, “ANTI-PROLIFERATIVE AGENTS” (First Health Pharmaceuticals B.V., priority 2021, dated 2022)

Tests used:
[1] = Tissue distribution after single I.P. administration; format: in vivo, male Swiss Albino Mice
DDX3X = DDX3X (Homo sapiens, UniProt O00571); assay: Helicase assay (unwinding of 18/36mer dsRNA); format: biochemical; parameters: host or cells: 293T cells (transient transfection, anti-HA immunoprecipitation, protein kept on beads); conditions: 50, 250 and 500 µM, in presence of ATP
DDX3X, sequence (O00571 whole entry): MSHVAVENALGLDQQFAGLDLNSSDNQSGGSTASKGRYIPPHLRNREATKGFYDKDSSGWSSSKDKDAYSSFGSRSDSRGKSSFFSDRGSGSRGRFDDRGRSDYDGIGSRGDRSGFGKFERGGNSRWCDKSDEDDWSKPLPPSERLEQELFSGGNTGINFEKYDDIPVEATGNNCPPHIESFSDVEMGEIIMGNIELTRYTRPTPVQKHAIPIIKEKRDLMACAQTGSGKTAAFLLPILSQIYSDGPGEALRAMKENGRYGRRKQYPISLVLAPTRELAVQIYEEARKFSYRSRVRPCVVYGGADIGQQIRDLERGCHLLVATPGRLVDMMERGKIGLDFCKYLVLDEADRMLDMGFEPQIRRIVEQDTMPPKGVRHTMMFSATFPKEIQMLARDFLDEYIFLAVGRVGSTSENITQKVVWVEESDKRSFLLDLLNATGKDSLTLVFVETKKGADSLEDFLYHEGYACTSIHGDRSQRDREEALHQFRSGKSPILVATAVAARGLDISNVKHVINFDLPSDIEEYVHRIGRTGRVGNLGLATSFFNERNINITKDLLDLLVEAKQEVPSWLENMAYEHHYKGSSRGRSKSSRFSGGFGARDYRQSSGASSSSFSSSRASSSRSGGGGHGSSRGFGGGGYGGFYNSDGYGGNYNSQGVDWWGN
Procedure: The DDX3X protein was obtained by immunoprecipitation from 293T cells (3x10^5) were seeded in 6-well plates and, after 24h, transfected with 1 µg of HA-DDX3 (Addgene plasmid # 44975) by using the Lipofectamine reagent (Thermo Fischer Scientific). After 36 h, cells were lysed in NP-40 Lysis Buffer (20 mM HEPES pH=7.5, 10 mM EGTA pH=8, 40 mM β-glycerolphosphate, 1% NP40, 2.5 mM MgCl2, 2 mM Orthovanadate, 2 mM NaF, 1 mM DTT, and 1X protease inhibitors mixture) and 2 mg of proteins were immunoprecipitated with anti-HA antibodies (Covance) in NP40 lysis buffer. Immunoprecipitated samples were washed twice with lysis buffer and one time in helicase reaction buffer (50 mM Tris HCl pH=8, 1 mM DTT, 5% glycerol, 10 mM MgCl2). Beads were then resuspended in 100 µl in helicase reaction buffer. […]
Ultimately, reactions were performed in a final volume 100 µl of helicase reaction buffer plus ATP 4 mM, 30 µl of beads used to immunoprecipitate HA-DDX3X, 20 nM of 18/36mer dsRNA and 100 nM of competitor at 37°C for 1 hour and stopped by adding 10 µl of a stopping solution (EDTA 60 mM pH=8, 40% glycerol, 0.6% SDS, 1% Orange G). […] Quantification of the ssRNA was performed by the ImageJ software (version 1.53, NIH). […]

H9 = assay: Cytotoxicity, cell viability; conditions: Homo sapiens; H9, 72 hours of incubation, ATP-based method
Procedure: (§1) The anti-tumor activity of the compounds of the present invention was evaluated as the effect on the proliferation and survival of tumor cells by counting the number of living cells in presence or absence of the compounds ("cell count method"), and as the effect on the viability and metabolic activity of the cells, by using particular substrates that are converted by cellular enzymes into coloured or luminescent products, proportionally with metabolic activity and state of the cell, such as the MTS tetrazolium compound ("MTS method") or luciferin ("ATP-based method") respectively.
Cells were seeded at 3 to 5 x 10^4 cells/well density depending on cell lines and maintained at 37°C in 5% CO2. After 24 hours cells were treated with ascending concentrations of the investigational compounds and the reference (5-fluoro-Uracyl) in a range from 0 to 100 µM. […] After 72 h of incubation with compounds, the cells were detached with trypsin and re-suspended in 1 ml of complete medium; the cell number was evaluated using a Z2 Coulter Counter ("cell count method") (Attallah and Johnson, A simple highly sensitive methods for the determination of cell viability using an electronic particle analyzer, Coulter counter J. Immunol. Methods. 1981, 41, 155; Leonardi et al., Activated kinase screening identifies the IKBKE oncogene as a positive regulator of autophagy. Autophagy, 2019, 15, 312). […]

A375 cell line = assay: Cytotoxicity, cell count method; format: cell-based; conditions: Homo sapiens, A-375, A375, 72 hours of incubation
Procedure: as §1
(§2) Cells were seeded at 3 to 5 x 10^4 cells/well density depending on cell lines and maintained at 37°C in 5% CO2. After 24 hours cells were treated with ascending concentrations of the investigational compounds and the reference (5-fluoro-Uracyl) in a range from 0 to 100 µM. Compounds were dissolved in DMSO which final concentration in each well was 0.5% v:v. After 72 h of incubation with compounds, the cells were detached with trypsin and re-suspended in 1 ml of complete medium; the cell number was evaluated using a Z2 Coulter Counter ("cell count method") (Attallah and Johnson, A simple highly sensitive methods for the determination of cell viability using an electronic particle analyzer, Coulter counter J. Immunol. Methods. 1981, 41, 155; Leonardi et al., Activated kinase screening identifies the IKBKE oncogene as a positive regulator of autophagy. Autophagy, 2019, 15, 312). Alternatively, after the 72 hours of incubation with compounds, the MTS solution (CellTiter 96® AQueous One Solution Cell Proliferation Assay) is added to each well and absorbance at 490 nm wavelength is read after 2 hours of incubation ("MTS method"). Results in Tables 8-13, 17, 18 were obtained with the cell count method. Results in Tables 14-15 were obtained with the MTS method. Results in Table 16 were obtained with ATP-based method.

HUH7 cell line = assay: Cytotoxicity, cell count method; format: cell-based; conditions: Homo sapiens, Huh-7, HUH7, 72 hours of incubation
Procedure: as §1, §2

PANC-1 cell line = assay: Cytotoxicity, cell count method; format: cell-based; conditions: Homo sapiens, PANC-1, 72 hours of incubation
Procedure: as §1, §2

U87 = assay: Cytotoxicity, cell count method; format: cell-based; conditions: Homo sapiens, U-87 MG, U87, 72 hours of incubation
Procedure: as §1, §2

A549 = assay: Cytotoxicity, cell count method; format: cell-based; conditions: Homo sapiens, A549, 72 hours of incubation
Procedure: as §1, §2

SK-LU1 = assay: Cytotoxicity, cell count method; format: cell-based; conditions: Homo sapiens, SK-LU-1, SK-LU1, 72 hours of incubation
Procedure: as §1, §2

CALU1 = assay: Cytotoxicity, cell count method; format: cell-based; conditions: Homo sapiens, Calu-1, CALU1, 72 hours of incubation
Procedure: as §1, §2

A549 Red-FLuc = assay: Cytotoxicity, cell count method; format: cell-based; conditions: Homo sapiens, 72 hours of incubation
Procedure: as §1, §2

DU145 cell line = assay: Cytotoxicity, cell count method; format: cell-based; conditions: Homo sapiens, DU-145, DU145, 72 hours of incubation
Procedure: as §1, §2

Molecule `CCCCc1cn(-c2ccc(-c3nnc(-c4ccccc4C(F)(F)F)o3)cc2)nn1` [Compound 5] has a Kidney to plasma ([1]; 4 hours after single administration I.P. 45 mg/Kg) of 11.5, a Kidney to plasma ([1]; 8 hours after single administration I.P. 45 mg/Kg) of 9.2 and a Kidney to plasma ([1]; 24 hours after single administration I.P. 45 mg/Kg) of 9.3. For the same molecule, the “inhibitory effect on DDX3X helicase activity” value (DDX3X) was “inhibitory effect on DDX3X helicase activity”, the IC50 (H9) was 50000 nM and the IC50 (A375 cell line) was 940 nM. For the same molecule, the IC50 (HUH7 cell line) was 3280 nM, the IC50 (PANC-1 cell line) was 720 nM and the IC50 (U87) was 3900 nM. For the same molecule, the IC50 (A549) was 350 nM, the IC50 (SK-LU1) was 420 nM and the IC50 (CALU1) was 370 nM. The IC50 (A549 Red-FLuc) was 6040 nM and the IC50 (DU145 cell line) was 3700 nM.
